Read-outs that look alike come from different tables or passages of the source.

Our source for the IC50 values is patent US20230416205A1, “COMPOUNDS, COMPOSITIONS, AND METHODS” (Denali Therapeutics Inc, priority 2020, published 2023).

This assay deals with NLRP3. The assay can be described thus: IL-1β secretion assay in PMA-differentiated, LPS/nigericin-stimulated THP-1 cells (384-well, ELISA read-out). The format is cell-based, human. To be noted: Homo sapiens. The method, boiled down:
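THP-1 cells differentiated with PMA (5 ng/mL, 40 h), primed in serum-free medium with 25 ng/mL LPS for 2 h, treated with compounds 1 h (0.5% DMSO), then stimulated with nigericin for 2 h at 37 °C. Supernatant IL-1β measured by ELISA; responses normalized to LPS+5 μM nigericin and LPS-only controls.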

[1] abbreviates: THP-1, IL-1β secretion, PMA-differentiated THP-1 cells, LPS then nigericin stimulation, ELISA read at 450 nm, read-out: Activity.
Where [2] appears, read: THP-1, Table 4, IL-1β secretion, LPS/nigericin-stimulated THP-1 cells, read-out: IC50.

As to `O=C(CN1CC2(CC2)c2cc(Br)ccc2C1=O)Nc1ncc2ccccc2n1` [Example 197, 2-(6-bromo-1-oxospiro[3H-isoquinoline-4,1′-cyclopropane]-2-yl)-N-quinazolin-2-ylacetamide], the IC50 reads like this: under setting [1], below 10000 nM; under setting [2], 1250 nM.

On to `O=C(CN1CC2(CC2)c2cc(Br)ccc2C1=O)Nc1ccc2ccccc2n1` [Example 198, 2-(6-bromo-1-oxospiro[3H-isoquinoline-4,1′-cyclopropane]-2-yl)-N-quinolin-2-ylacetamide], for which the IC50 runs as follows: under setting [1], below 10000 nM; under setting [2], 1500 nM.

Take `O=C(CN1CC2(CC2)c2cc(Br)ccc2C1=O)Nc1ccc2cccnc2n1` [Example 199, 2-(6-bromo-1-oxospiro[3H-isoquinoline-4,1′-cyclopropane]-2-yl)-N-(1,8-naphthyridin-2-yl)acetamide]: the IC50 was below 10000 nM under setting [1] and 1370 nM under setting [2].

As for `O=C(CN1CC2(CC2)c2cc(Br)ccc2C1=O)Nc1ccc2cncn2c1` [Example 201, 2-(6-bromo-1-oxospiro[3H-isoquinoline-4,1′-cyclopropane]-2-yl)-N-imidazo[1,5-a]pyridin-6-ylacetamide], the IC50 was below 10000 nM under setting [1] and 1320 nM under setting [2].

For the molecule `Cc1cnc(NC(=O)CN2CC3(CC3)c3cc(Br)ccc3C2=O)nc1` [Example 202, 2-(6-bromo-1-oxospiro[3H-isoquinoline-4,1′-cyclopropane]-2-yl)-N-(5-methylpyrimidin-2-yl)acetamide], the IC50 by setting is: under setting [1], below 10000 nM; under setting [2], 187 nM.

`CCc1cnc(NC(=O)CN2CC3(CC3)c3cc(Br)ccc3C2=O)nc1` [Example 204, 2-(6-bromo-1-oxospiro[3H-isoquinoline-4,1′-cyclopropane]-2-yl)-N-(5-ethylpyrimidin-2-yl)acetamide]: the IC50 was below 10000 nM under setting [1] and 646 nM under setting [2].

For `O=C(CN1CC2(CC2)c2cc(Br)ccc2C1=O)Nc1nc2ccccc2o1` [Example 205, N-(1,3-benzoxazol-2-yl)-2-(6-bromo-1-oxospiro[3H-isoquinoline-4,1′-cyclopropane]-2-yl)acetamide], the IC50 by setting is: under setting [1], below 10000 nM; under setting [2], 306 nM.

Take `O=C(CN1CC2(CC2)c2cc(Br)ccc2C1=O)Nc1ccc2cnccc2n1` [Example 206, 2-(6-bromo-1-oxospiro[3H-isoquinoline-4,1′-cyclopropane]-2-yl)-N-(1,6-naphthyridin-2-yl)acetamide]: the IC50 is below 10000 nM under setting [1] and 1260 nM under setting [2].

In the case of `N#Cc1ccc2nc(NC(=O)CN3CC4(CC4)c4cc(Br)ccc4C3=O)oc2c1` [Example 207, 2-(6-bromo-1-oxospiro[3H-isoquinoline-4,1′-cyclopropane]-2-yl)-N-(6-cyano-1,3-benzoxazol-2-yl)acetamide], the IC50 under setting [1] was below 10000 nM and the IC50 under setting [2] was 487 nM.

Regarding `O=C(CN1CC2(CC2)c2cc(Br)ccc2C1=O)Nc1ccc(F)cn1` [Example 208, 2-(6-bromo-1-oxospiro[3H-isoquinoline-4,1′-cyclopropane]-2-yl)-N-(5-fluoropyridin-2-yl)acetamide], the IC50 runs as follows: under setting [1], below 10000 nM; under setting [2], 709 nM.

Consider `O=C(CN1CC2(CC2)c2cc(Br)ccc2C1=O)Nc1nc2ncccc2o1` [Example 209, 2-(6-bromo-1-oxo-spiro[3H-isoquinoline-4,1′-cyclopropane]-2-yl)-N-oxazolo[4,5-b]pyridin-2-yl-acetamide], for which the IC50 was below 10000 nM under setting [1] and 3560 nM under setting [2].

In the case of `O=C(CN1CC2(CC2)c2cc(Br)ccc2C1=O)Nc1nc2cnccc2o1` [Example 210, 2-(6-bromo-1-oxo-spiro[3H-isoquinoline-4,1′-cyclopropane]-2-yl)-N-oxazolo[4,5-c]pyridin-2-yl-acetamide], the IC50 runs as follows: under setting [1], below 10000 nM; under setting [2], 822 nM.

Regarding `O=C(CN1CC2(CC2)c2cc(Br)ccc2C1=O)Nc1nc2cccnc2o1` [Example 211, 2-(6-bromo-1-oxo-spiro[3H-isoquinoline-4,1′-cyclopropane]-2-yl)-N-oxazolo[5,4-b]pyridin-2-yl-acetamide], the IC50 reads like this: under setting [1], below 10000 nM; under setting [2], 1180 nM.

`O=C(CN1CC2(CC2)c2cc(Br)ccc2C1=O)Nc1nc2ccncc2o1` [Example 212, 2-(6-bromo-1-oxo-spiro[3H-isoquinoline-4,1′-cyclopropane]-2-yl)-N-oxazolo[5,4-c]pyridin-2-yl-acetamide]: the IC50 is below 10000 nM under setting [1] and 589 nM under setting [2].

Turning to `O=C(CN1CC2(CC2)c2cc(Br)ccc2C1=O)Nc1ncc2c(n1)COC2` [Example 213, 2-(6-bromo-1-oxospiro[3H-isoquinoline-4,1′-cyclopropane]-2-yl)-N-(5,7-dihydrofuro[3,4-d]pyrimidin-2-yl)acetamide], the IC50 is, setting by setting: under setting [1], below 10000 nM; under setting [2], 1340 nM.

As to `O=C(CN1CC2(CC2)c2cc(Br)ccc2C1=O)Nc1nccc(=O)[nH]1` [Example 214, 2-(6-bromo-1-oxospiro[3H-isoquinoline-4,1′-cyclopropane]-2-yl)-N-(6-oxo-1H-pyrimidin-2-yl)acetamide], the IC50 reads like this: under setting [1], below 10000 nM; under setting [2], 7500 nM.

As for `O=C(CN1CC2(CC2)c2cc(F)ccc2C1=O)Nc1ncc(F)cn1` [Example 215, 2-(6-fluoro-1-oxospiro[3H-isoquinoline-4,1′-cyclopropane]-2-yl)-N-(5-fluoropyrimidin-2-yl)acetamide], the IC50 by setting is: under setting [1], below 10000 nM; under setting [2], 6860 nM.

For the molecule `Cc1cc(NC(=O)CN2CC3(CC3)c3cc(Br)ccc3C2=O)nc(C)n1` [Example 216, 2-(6-bromo-1-oxospiro[3H-isoquinoline-4,1′-cyclopropane]-2-yl)-N-(2,6-dimethylpyrimidin-4-yl)acetamide], the IC50 is below 10000 nM under setting [1] and 3980 nM under setting [2].

Consider `Cc1cnc(NC(=O)CN2CC3(CC3)c3cc(Br)ccc3C2=O)nc1C` [Example 217, 2-(6-bromo-1-oxospiro[3H-isoquinoline-4,1′-cyclopropane]-2-yl)-N-(4,5-dimethylpyrimidin-2-yl)acetamide], for which the IC50 by setting is: under setting [1], below 10000 nM; under setting [2], 862 nM.

Turning to `Cn1ncnc1NC(=O)CN1CC2(CC2)c2cc(Br)ccc2C1=O` [Example 218, 2-(6-bromo-1-oxospiro[3H-isoquinoline-4,1′-cyclopropane]-2-yl)-N-(2-methyl-1,2,4-triazol-3-yl)acetamide], the IC50 was below 10000 nM under setting [1] and 9180 nM under setting [2].

Take `N#Cc1ccc2oc(NC(=O)CN3CC4(CC4)c4cc(Br)ccc4C3=O)nc2c1` [Example 219, 2-(6-bromo-1-oxospiro[3H-isoquinoline-4,1′-cyclopropane]-2-yl)-N-(5-cyano-1,3-benzoxazol-2-yl)acetamide]: the IC50 under setting [1] was below 10000 nM and the IC50 under setting [2] turned out to be 1620 nM.

As for `N#Cc1cnc(NC(=O)CN2C[C@@]3(C[C@@H]3F)c3c(ccc(C4CC4)c3F)C2=O)nc1` [Example 230, 2-[(2′s,4r)-6-cyclopropyl-2′,5-difluoro-1-oxospiro[3H-isoquinoline-4,1′-cyclopropane]-2-yl]-N-(5-cyanopyrimidin-2-yl)acetamide], the IC50 by setting is: under setting [1], below 10000 nM; under setting [2], 51 nM.

Turning to `O=C(CN1C[C@]2(C[C@H]2F)c2cc(C3CC3)ccc2C1=O)Nc1ncc(F)cn1` [Example 231], the IC50 was below 10000 nM under setting [1] and 50 nM under setting [2].
